These are literature values, as cited in patent US20250152537A1, “COMPOSITIONS AND METHODS FOR THE TREATMENT OF HUMAN IMMUNODEFICIENCY VIRUS” (PROTHIONE LLC, priority 2022, published 2025).

For the data set the following is noted: not told.

Each structure is given as a SMILES string.

On to `N[C@@H](CCC(=O)N[C@@H](CS)C(=O)NCC(=O)O)C(=O)O` [GSH, glutathione], for which the membrane permeability result is given as “membrane-impermeable”.
